This passage reports Kd results from publication PMC5610941 (Journal of molecular biology, 2017).

The assay addresses HtpG (Escherichia coli, UniProt P0A6Z3). Put plainly: SAXS radius of gyration titration, closed-state accumulation. It is filed as binding.

Structures are written as SMILES.

By Kd is commonly meant a measure of binding affinity in units of concentration. Read a high Kd as a looser complex.

HtpG, sequence (P0A6Z3 whole entry): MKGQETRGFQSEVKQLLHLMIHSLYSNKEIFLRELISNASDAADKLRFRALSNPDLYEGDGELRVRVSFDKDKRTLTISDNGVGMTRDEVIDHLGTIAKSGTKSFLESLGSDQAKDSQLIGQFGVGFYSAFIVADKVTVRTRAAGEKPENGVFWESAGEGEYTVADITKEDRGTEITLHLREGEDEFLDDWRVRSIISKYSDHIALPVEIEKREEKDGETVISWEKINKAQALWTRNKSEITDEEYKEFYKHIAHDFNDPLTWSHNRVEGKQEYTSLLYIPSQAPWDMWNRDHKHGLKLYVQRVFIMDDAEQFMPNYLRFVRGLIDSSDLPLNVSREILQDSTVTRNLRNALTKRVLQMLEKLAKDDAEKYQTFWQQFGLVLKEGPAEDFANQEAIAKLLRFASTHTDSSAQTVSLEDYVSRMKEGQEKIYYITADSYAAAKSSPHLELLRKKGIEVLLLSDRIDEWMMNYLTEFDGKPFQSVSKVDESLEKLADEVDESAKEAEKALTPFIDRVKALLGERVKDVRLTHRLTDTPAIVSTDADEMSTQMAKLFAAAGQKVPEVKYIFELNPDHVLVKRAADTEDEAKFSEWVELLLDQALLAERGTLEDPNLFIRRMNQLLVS

`Nc1ncnc2c1ncn2[C@@H]1O[C@H](COP(=O)(O)OP(=O)(O)NP(=O)(O)O)[C@@H](O)[C@H]1O` [AMPPNP] displayed a Kd of 12 to 15 µM.
